Test results as given in ChEMBL document CHEMBL1201862, “PubChem BioAssay data set” (2004).
Calls of active or inactive are those of the source.

Columns and labels:
[1] = biological target: T1, Mannose-6-phosphate isomerase (Homo sapiens, UniProt P34949); test: human PMI inhibitors, high substrate, primary screen, biochemical, fluorescence intensity, high mannose 6-phosphate (AID 1220)
T1 sequence (P34949 whole entry): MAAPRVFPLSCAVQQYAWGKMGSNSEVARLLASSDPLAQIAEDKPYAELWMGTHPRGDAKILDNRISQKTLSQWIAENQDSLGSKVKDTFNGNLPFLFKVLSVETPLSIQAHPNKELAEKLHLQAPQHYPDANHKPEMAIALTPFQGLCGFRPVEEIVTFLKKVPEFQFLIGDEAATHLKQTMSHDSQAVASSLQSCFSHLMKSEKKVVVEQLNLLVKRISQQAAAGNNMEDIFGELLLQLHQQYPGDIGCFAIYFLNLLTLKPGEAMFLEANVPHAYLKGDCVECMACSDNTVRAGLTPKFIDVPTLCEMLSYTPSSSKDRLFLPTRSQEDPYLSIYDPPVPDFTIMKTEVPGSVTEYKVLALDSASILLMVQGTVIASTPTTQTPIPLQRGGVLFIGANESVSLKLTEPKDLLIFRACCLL

[2] = biological target: T2, Cytochrome P450 2C9 (Homo sapiens, UniProt P11712)
T2 sequence (P11712 whole entry): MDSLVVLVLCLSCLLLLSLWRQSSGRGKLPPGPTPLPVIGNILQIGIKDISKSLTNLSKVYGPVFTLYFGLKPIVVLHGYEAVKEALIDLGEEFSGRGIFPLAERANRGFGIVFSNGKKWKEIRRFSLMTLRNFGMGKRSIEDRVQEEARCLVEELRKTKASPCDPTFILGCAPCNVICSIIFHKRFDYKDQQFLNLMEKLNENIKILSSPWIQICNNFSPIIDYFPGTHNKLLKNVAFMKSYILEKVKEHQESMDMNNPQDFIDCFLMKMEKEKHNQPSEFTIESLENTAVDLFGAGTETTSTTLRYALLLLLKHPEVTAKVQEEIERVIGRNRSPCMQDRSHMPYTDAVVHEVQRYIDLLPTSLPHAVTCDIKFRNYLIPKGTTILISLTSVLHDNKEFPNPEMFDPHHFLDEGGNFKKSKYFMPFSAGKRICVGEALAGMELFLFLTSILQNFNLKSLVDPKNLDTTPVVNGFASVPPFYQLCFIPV

[3] = biological target: Cytochrome P450 2D6 (Homo sapiens, UniProt P10635)
Cytochrome P450 2D6, sequence (P10635 whole entry): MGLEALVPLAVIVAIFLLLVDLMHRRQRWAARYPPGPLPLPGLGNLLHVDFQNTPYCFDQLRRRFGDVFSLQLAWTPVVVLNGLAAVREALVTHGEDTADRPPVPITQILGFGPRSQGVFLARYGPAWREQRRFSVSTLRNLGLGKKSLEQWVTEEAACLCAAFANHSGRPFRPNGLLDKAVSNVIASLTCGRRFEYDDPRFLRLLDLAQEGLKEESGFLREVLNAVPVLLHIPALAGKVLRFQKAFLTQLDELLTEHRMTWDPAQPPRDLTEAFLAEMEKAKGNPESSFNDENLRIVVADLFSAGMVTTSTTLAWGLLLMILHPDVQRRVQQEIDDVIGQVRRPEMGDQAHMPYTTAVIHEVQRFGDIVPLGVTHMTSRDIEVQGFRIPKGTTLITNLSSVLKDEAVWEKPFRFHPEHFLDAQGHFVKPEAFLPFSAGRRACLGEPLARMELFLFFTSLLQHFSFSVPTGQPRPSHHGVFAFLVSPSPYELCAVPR

[4] = biological target: Cytochrome P450 3A4 (Homo sapiens, UniProt P08684);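 also: CYP3A4 tested as one member of a cytochrome P450 panel screen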
Cytochrome P450 3A4, sequence (P08684 whole entry): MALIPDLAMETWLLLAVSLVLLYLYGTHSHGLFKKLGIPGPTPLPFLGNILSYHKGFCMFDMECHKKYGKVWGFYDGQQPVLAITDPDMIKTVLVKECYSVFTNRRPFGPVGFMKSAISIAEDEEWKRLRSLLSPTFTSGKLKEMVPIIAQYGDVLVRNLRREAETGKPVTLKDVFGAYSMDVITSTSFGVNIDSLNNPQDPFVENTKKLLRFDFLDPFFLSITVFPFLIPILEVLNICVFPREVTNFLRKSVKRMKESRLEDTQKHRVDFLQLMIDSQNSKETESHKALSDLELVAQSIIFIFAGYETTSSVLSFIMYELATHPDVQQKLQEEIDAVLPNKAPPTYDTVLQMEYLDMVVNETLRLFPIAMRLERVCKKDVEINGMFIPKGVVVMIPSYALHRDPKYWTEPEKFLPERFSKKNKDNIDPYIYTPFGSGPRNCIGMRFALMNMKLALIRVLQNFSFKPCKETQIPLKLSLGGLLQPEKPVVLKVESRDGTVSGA

[5] = biological target: T2, Cytochrome P450 2C9; remark: listed apart in the source
[6] = biological target: Cytochrome P450 2C19 (Homo sapiens, UniProt P33261); test: Cytochrome panel assay with activity outcomes. Panel member name: p450-cyp2c19 Compounds with AC50 equal or less than 10 uM are considered active; type: functional
Cytochrome P450 2C19, sequence (P33261 whole entry): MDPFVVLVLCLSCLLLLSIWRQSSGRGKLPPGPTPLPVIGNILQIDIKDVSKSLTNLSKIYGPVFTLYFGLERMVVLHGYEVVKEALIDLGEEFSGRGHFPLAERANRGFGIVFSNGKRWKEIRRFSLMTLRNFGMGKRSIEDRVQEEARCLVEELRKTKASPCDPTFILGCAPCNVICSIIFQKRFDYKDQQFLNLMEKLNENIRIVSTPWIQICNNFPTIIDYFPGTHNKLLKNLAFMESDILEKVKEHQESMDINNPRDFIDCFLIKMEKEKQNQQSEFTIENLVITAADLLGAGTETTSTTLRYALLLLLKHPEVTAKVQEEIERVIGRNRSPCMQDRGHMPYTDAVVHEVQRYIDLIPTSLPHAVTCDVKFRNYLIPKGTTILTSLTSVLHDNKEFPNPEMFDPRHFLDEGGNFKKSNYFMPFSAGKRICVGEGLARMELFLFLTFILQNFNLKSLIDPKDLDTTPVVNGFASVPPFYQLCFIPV

[7] = biological target: FAD-linked sulfhydryl oxidase ALR (Homo sapiens, UniProt P55789); test: inhibitors of human ALR sulfhydryl oxidase, dose response, biochemical, H2O2 detection, luminescence, cherry-pick (AID 493248)
FAD-linked sulfhydryl oxidase ALR, sequence (P55789 whole entry): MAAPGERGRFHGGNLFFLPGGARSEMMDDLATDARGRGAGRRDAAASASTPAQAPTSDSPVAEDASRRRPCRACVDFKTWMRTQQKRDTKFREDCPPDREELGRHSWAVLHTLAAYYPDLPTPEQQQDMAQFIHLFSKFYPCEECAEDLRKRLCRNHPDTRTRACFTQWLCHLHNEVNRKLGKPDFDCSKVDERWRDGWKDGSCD

[8] = biological target: DNA dC->dU-editing enzyme APOBEC-3A (Homo sapiens, UniProt P31941); test: Dose Response confirmation of small molecule APOBEC3A DNA Deaminase Inhibitors via a fluorescence-based single-stranded DNA deaminase assay. [Related pubchem assays (depositor defined):AID493011, AID493024]; type: functional
DNA dC->dU-editing enzyme APOBEC-3A, sequence (P31941 whole entry): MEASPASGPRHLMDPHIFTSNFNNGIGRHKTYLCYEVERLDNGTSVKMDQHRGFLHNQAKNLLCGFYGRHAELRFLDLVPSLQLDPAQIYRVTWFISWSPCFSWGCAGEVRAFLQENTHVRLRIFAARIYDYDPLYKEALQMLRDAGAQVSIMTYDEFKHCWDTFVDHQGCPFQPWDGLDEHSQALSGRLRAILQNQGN

[9] = biological target: DNA dC->dU-editing enzyme APOBEC-3G (Homo sapiens, UniProt Q9HC16); type: functional;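 also: Dose-response counterscreen measuring inhibition of APOBEC3G DNA deaminase activity, run while confirming APOBEC3A inhibitors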
DNA dC->dU-editing enzyme APOBEC-3G, sequence (Q9HC16 whole entry): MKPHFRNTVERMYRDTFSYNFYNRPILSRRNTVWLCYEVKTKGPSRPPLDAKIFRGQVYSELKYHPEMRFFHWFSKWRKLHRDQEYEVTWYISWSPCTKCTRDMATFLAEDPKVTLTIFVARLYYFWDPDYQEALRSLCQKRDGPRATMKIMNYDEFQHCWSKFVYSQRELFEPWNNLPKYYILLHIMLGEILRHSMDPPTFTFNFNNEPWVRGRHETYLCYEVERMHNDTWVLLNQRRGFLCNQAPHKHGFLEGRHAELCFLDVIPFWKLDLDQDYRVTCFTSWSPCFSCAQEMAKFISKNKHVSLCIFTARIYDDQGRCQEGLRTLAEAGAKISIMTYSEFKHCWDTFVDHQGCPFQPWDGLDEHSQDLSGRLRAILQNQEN

[10] = biological target: Paired box protein Pax-8 (Homo sapiens, UniProt Q06710); test: inhibitors of PAX8-driven TPO luciferase reporter, dose response, RMG-I cells, cherry-pick (AID 687027); type: functional, cell-based;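 also: luciferase reporter driven by Pax8 target thyroperoxidase promoter measured by SteadyGlo luminescence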
Paired box protein Pax-8, sequence (Q06710 whole entry): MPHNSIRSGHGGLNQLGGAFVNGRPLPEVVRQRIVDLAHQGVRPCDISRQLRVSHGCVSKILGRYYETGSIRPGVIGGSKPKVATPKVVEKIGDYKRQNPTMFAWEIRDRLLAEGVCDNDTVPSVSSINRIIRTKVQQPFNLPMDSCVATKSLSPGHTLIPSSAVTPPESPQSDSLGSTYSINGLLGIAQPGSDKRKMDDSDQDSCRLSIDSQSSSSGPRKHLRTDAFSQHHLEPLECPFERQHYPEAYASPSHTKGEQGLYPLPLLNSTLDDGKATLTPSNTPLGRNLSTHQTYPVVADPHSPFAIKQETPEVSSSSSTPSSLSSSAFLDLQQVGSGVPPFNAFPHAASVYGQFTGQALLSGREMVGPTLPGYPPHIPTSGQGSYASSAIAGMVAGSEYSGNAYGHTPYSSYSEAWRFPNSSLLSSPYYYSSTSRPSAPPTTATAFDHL

[11] = cytotoxicity in OVCAR8 ovarian cancer cells, dose response, PAX8 project, cell-based, plate reader, dry powder samples (AID 743197); type: functional; settings: OVCAR-8
[12] = cytotoxicity toward NIH3T3 fibroblasts, dose response, counter-screen, cell-based, ATP luminescence, mouse fibroblasts (AID 2010); type: functional;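 also: cells exposed to compound for about 90 hours before reading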
[13] = inhibitors of intracellular T. cruzi replication, confirmation, NIH3T3 host cells, beta-gal luminescence (AID 2044); type: functional, cell-based;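 also: intracellular parasites grown in NIH/3T3 mouse fibroblasts as host cells; luminescent beta-galactosidase reporter signal from transgenic T. cruzi replicating inside host cells; inhibitors lower the luminescence signal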

Structure (SMILES): O=[N+]([O-])c1cc2c(cc1/C=N/c1ccccc1)OCO2
- IC50 [1]: > 50 µM (not active)
- AC50 [2]: 10 µM (inconclusive)
- AC50 [3]: 25.1 µM (inconclusive)
- AC50 [4]: 20 µM (inconclusive)

Structure (SMILES): CCOc1ccc(S(=O)(=O)NCc2ccc(F)cc2)c2cccnc12
- AC50 [5]: inconclusive
- AC50 [3]: 31.6 µM (inconclusive)
- AC50 ([6]; read-out: AC50): 7.94 µM (inconclusive)

Structure (SMILES): C/C(Cl)=C\Cn1c(N2CCCC2)nc2c1c(=O)[nH]c(=O)n2C
- AC50 [5]: inconclusive
- AC50 [4]: 15.8 µM (inconclusive)
- AC50 [6]: inconclusive

Structure (SMILES): CC(=O)Nc1cc(-c2ccccc2)ccc1O
- AC50 [7]: 1.1 µM (active)
- IC50 [8]: 7.17 µM (active)
- IC50 [9]: 16.5 µM (active)

Structure (SMILES): Cc1nc(-c2cccnc2)sc1C(=O)Nc1ccc(F)cc1F
- AC50 [5]: inconclusive
- AC50 ([6]; read-out: AC50): 8.91 µM (inconclusive)

Structure (SMILES): CC(C)C(NC(=O)COc1ccc2ccccc2c1)C(=O)N/N=C/C=C/c1ccccc1 (centres undefined)
- IC50 [8]: 3.22 µM (active)
- IC50 [9]: 4.97 µM (active)

Structure (SMILES): C[C@@H]1CCCCO[C@H](CN(C)Cc2ccc(C(F)(F)F)cc2)[C@@H](C)CN([C@@H](C)CO)C(=O)c2cc(NS(=O)(=O)c3ccc(Cl)cc3)ccc2O1
- AC50 [10]: 6.82 µM (active)
- AC50 [11]: 40.7 µM (active)

Structure (SMILES): CN1CCC(N(C)S(=O)(=O)c2ccc(NC(=O)COc3ccc(F)cc3)cc2)CC1
- EC50 [12]: > 60 µM (not active)
- EC50 [13]: 0.835 µM (active)
- IC50 [8]: 3.71 µM (active)
- IC50 [9]: 3.53 µM (active)

Structure (SMILES): COCC(C)N1C(=O)Cc2c1nc(N)c1c(N)nc(N3CCN(c4ccccc4F)CC3)c(C#N)c21 (centres undefined)
- IC50 [1]: > 50 µM (not active)
